In patent US20230322861A1, “SYNTHETIC PEPTIDES FOR DISSOLVING TAU INCLUSIONS” (The Trustees of Princeton University, priority 2022, published 2023):

How the values were obtained:
Format in all cases: cell-based
[1] = system: tau inclusions; assay: co-expression of fluorescent-tagged tau inclusions with mCherry-tagged synthetic peptide sequences; probability of cells containing a tau inclusion; settings: cells expressing peptide-mCherry fusion; FIGS. 2H, 2J, 2K
[2] = system: tau inclusions; assay: as above; settings: at different concentrations of co-expressed peptide-mCherry fusion; FIGS. 2A-2K
Description: Various peptide sequences were tested by co-expressing fluorescent-tagged tau inclusions with mCherry-tagged synthetic peptide sequences, and quantifying a probability of cells containing a tau inclusion at different synthetic peptide concentrations.

[3] = system: tau aggregate-containing cells (strain DS18); assay: curing of tau aggregates in colonies of tau aggregate-containing cells expressing mCherry or SubF-mCherry; settings: expressed for a week, passaged at low density, imaged after 7 days, 14 fields of view; representative field FIGS. 3A-3B
Description: FIGS. 3A-3B are images of representative fields of view of mCherry (3A) or SubF-mCherry (3B) in tau aggregate-containing cell colonies.
As an example of this, mCherry or SubF-mCherry were expressed in tau aggregate-containing cells (strain DS18) for a week. Cells were then passaged into a new dish at low density. After 7 days, 14 fields of view were imaged for each condition, and the fraction of colonies cured of tau aggregates was determined.

SR Kinase (SRSRS) (ARSRSRSSSSSSSSSSSSSSSSSSSSSSSSSSSSSSSSSSSSSSSSSSSSSA) [#10, 13, mCherry-tagged]
tau-negative aggregates (aggregates formed absent the presence of tau) [1]: tau-negative aggregates were noted
probability of cells containing a tau inclusion [2]: reducing tau inclusions, relatively rapidly

S52 (Pure Polyserine) [#8]
tau-negative aggregates (aggregates formed absent the presence of tau) [1]: tau-negative aggregates were noted
probability of cells containing a tau inclusion [2]: no decrease in tau inclusions was seen

Sub F-mCherry: SubF sequence (KRKRR followed by 42 serines, SEQ ID NO. 3) fused to mCherry (KRKRRSSSSSSSSSSSSSSSSSSSSSSSSSSSSSSSSSSSSSSSSSS)
colonies with / cured of tau aggregates [3]: many of the 27 colonies lack aggregates in all cells

SubF Scramble (SSSRSSSSSKSSSSSSASSSSPSSASSSSSRSSSSPSSSSSSKSSSSSRSSS) [#9, 12, mCherry-tagged]
probability of cells containing a tau inclusion [2]: no reduction in tau inclusions was seen

CK2 (SDSDS) (ASSSDSDSSSSSSSSSSSSSSSSSSSSSSSSSSSSSSSSSSSSSSSSSSSSA) [#11, 14, mCherry-tagged]
tau-negative aggregates (aggregates formed absent the presence of tau) [1]: without forming tau-negative aggregates
probability of cells containing a tau inclusion [2]: reduces tau inclusion

B1: Human SRRM2 Isoform 1 Fragment 26 (F26) WT (peptide)
chain: SSSSSSGSSSSDSEGSSLPVQPEVALKRVPSPTPAPKEAVREGRPPEPTPAKRKRRSSSSSSSSSSSSSSSSSSSSSSSS
notes: 5, mCherry-tagged
probability of cells containing a tau inclusion [2]: reduce the probability of tau inclusions to zero
